Assay results as given in patent US7632844B2, “2-hydroxy-6-phenylphenanthridines as PDE-4 inhibitors” (Nycomed GmbH, priority 2002, dated 2009).

How the values were obtained:
[1] = test system: PDE4 (cytosol from human neutrophils); experiment: Inhibition of PDE4 activity, Method a ([3H]cAMP hydrolysis, cytosol from human neutrophils); assay type: biochemical; design: unit not given here; settings: 0.5 μM cAMP, Motapizone 1 μM
Description: PDE4 activity was determined as described by Thompson et al. (Adv Cycl Nucl Res 10: 69-92, 1979) with some modifications (Bauer and Schwabe, Naunyn-Schmiedeberg's Arch Pharmacol 311: 193-198, 1980). At a final assay volume of 200 μl (96 well microtiter plates) the assay mixture contained 20 mM Tris (pH 7.4), 5 mM MgCl2, 0.5 μM cAMP, [^3H]cAMP (about 30,000 cpm/assay), the test compound and an aliquot of cytosol from human neutrophils which mainly contains PDE4 activity as described by Schudt et al. (Naunyn-Schmiedeberg's Arch Pharmacol 344: 682-690, 1991); the PDE3-specific inhibitor Motapizone (1 μM) was included to suppress PDE3 activity originating from contaminating platelets. Serial dilutions of the compounds were prepared in DMSO and further diluted 1:100 (v/v) in the assays to obtain the desired final concentrations of the inhibitors at a DMSO concentration of 1% (v/v) which by itself only slightly affected PDE4 activity.
After preincubation for 5 min at 37° C., the reaction was started by the addition of substrate (cAMP) and the assays were incubated for further 15 min at 37° C. 50 μl of 0.2 N HCl was added to stop the reaction and the assays were left on ice for about 10 min. Following incubation with 25 μg 5′-nucleotidase (Crotalus atrox snake venom) for 10 min at 37° C., the assays were loaded on QAE Sephadex A-25 (1 ml bed volume). The columns were eluted with 2 ml of 30 mM ammonium formiate (pH 6.0) and the eluate was counted for radioactivity. Results were corrected for blank values (measured in the presence of denatured protein) which were below 5% of total radioactivity. […] The IC50-values for the compounds according to the invention for the inhibition of the PDE4 activity were determined from the concentration-inhibition curves by nonlinear-regression.

[2] = biological target: T1, PDE4B2 (GB no. M97515) (Homo sapiens, UniProt Q07343); experiment: Inhibition of PDE4B2 activity, Method b (modified SPA test, recombinant PDE expressed in SF21 cells); assay type: biochemical; settings: 0.5 μM cAMP, read-out: Inhibition of the PDE4 activity, −log IC50 (converted)
T1 construct: made in house; host or cells: SF21 insect cells (baculovirus; virus made in SF9 cells)
T1 sequence (Q07343 1-564 isoform Q07343-2): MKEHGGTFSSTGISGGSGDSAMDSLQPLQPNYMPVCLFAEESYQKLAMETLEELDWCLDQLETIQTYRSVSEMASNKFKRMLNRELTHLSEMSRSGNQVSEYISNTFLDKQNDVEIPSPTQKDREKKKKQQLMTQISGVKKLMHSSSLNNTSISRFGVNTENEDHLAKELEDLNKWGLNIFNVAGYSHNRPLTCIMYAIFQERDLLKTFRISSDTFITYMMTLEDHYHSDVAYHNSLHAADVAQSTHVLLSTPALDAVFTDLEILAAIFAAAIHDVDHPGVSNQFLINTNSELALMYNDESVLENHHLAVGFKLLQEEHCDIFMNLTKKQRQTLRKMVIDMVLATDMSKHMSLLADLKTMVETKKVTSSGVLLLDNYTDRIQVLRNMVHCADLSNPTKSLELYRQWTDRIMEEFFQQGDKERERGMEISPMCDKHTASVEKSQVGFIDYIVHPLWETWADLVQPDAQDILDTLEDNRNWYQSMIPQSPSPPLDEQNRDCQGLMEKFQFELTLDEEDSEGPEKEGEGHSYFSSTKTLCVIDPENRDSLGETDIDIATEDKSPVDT
Description: The PDE4B2 (GB no. M97515) was a gift of Prof. M. Conti (Stanford University, USA). It was amplified from the original plasmid (pCMV5) via PCR with primers Rb9 (5′-[…]-3′) and Rb10 (5′-[…]-3′) and cloned into the pCR-Bac vector (Invitrogen, Groningen, NL).
The recombinant baculovirus was prepared by means of homologous recombination in SF9 insect cells. The expression plasmid was cotransfected with Bac-N-Blue (Invitrogen, Groningen, NL) or Baculo-Gold DNA (Pharmingen, Hamburg) using a standard protocol (Pharmingen, Hamburg). Wt virus-free recombinant virus supernatant was selected using plaque assay methods. After that, high-titre virus supernatant was prepared by amplifying 3 times. PDE was expressed in SF21 cells by infecting 2×10^6 cells/ml with an MOI (multiplicity of infection) between 1 and 10 in serum-free SF900 medium (Life Technologies, Paisley, UK). The cells were cultured at 28° C. for 48-72 hours, after which they were pelleted for 5-10 min at 1000 g and 4° C.
The SF21 insect cells were resuspended, at a concentration of approx. 10^7 cells/ml, in ice-cold (4° C.) homogenization buffer (20 mM Tris, pH 8.2, containing the following additions: 140 mM NaCl, 3.8 mM KCl, 1 mM EGTA, 1 mM MgCl2, 10 mM β-mercaptoethanol, 2 mM benzamidine, 0.4 mM Pefablock, 10 μM leupeptin, 10 μM pepstatin A, 5 μM trypsin inhibitor) and disrupted by ultrasonication. The homogenate was then centrifuged for 10 min at 1000×g and the supernatant was stored at −80° C. until subsequent use (see below). The protein content was determined by the Bradford method (BioRad, Munich) using BSA as the standard.
PDE4B2 activity is inhibited by the said compounds in a modified SPA (scintillation proximity assay) test, supplied by Amersham Biosciences (see procedural instructions “phosphodiesterase [3H]cAMP SPA enzyme assay, code TRKQ 7090”), carried out in 96-well microtiter plates (MTP's). The test volume is 100 μl and contains 20 mM Tris buffer (pH 7.4), 0.1 mg of BSA (bovine serum albumin)/ml, 5 mM Mg^2+, 0.5 μM cAMP (including about 50,000 cpm of [3H]cAMP), 1 μl of the respective substance dilution in DMSO and sufficient recombinant PDE (1000×g supernatant, see above) to ensure that 10-20% of the cAMP is converted under the said experimental conditions. […] After a preincubation of 5 min at 37° C., the reaction is started by adding the substrate (cAMP) and the assay is incubated for a further 15 min; after that, it is stopped by adding SPA beads (50 μl). In accordance with the manufacturer's instructions, the SPA beads had previously been resuspended in water, but were then diluted 1:3 (v/v) in water; the diluted solution also contains 3 mM IBMX to ensure a complete PDE activity stop. After the beads have been sedimented (>30 min), the MTP's are analyzed in commercially available luminescence detection devices. The corresponding IC50 values of the compounds for the inhibition of PDE activity are determined from the concentration-effect curves by means of non-linear regression.

Row | SMILES | Inhibition of the PDE4 activity, −log IC50 [1] | melting point [°C] | IC50 [2] [nM]
1 | COc1cc2c(cc1OC)C1CC(OC(C)=O)CCC1N=C2c1ccc([N+](=O)[O-])cc1 (racemic) [Compound 5, (±)-Acetic acid (2RS,4aRS,10bRS)-6-(4-nitrophenyl)-8,9-dimethoxy-(1,2,3,4,4a,10b)-hexahydrophenanthridin-2-yl ester] | 7.09 | 77 to 88 | 
2 | COc1cc2c(cc1OC)C1CC(OC(C)=O)CCC1N=C2c1ccc(OCC2CC2)c(OCC2CC2)c1 (racemic) [Compound 6, (±)-Acetic acid (2SR,4aRS,10bRS)-6-(3,4-bis-cyclopropylmethoxyphenyl)-8,9-dimethoxy-(1,2,3,4,4a,10b)-hexahydrophenanthridin-2-yl ester] | 7.26 |  | 
3 | COc1cc2c(cc1OC)C1CC(O)CCC1N=C2c1ccc(OCC2CC2)c(OCC2CC2)c1 (racemic) [Compound 7, (±)-(2RS,4aRS,10bRS)-6-(3,4-Bis-cyclopropylmethoxyphenyl)-8,9-dimethoxy-(1,2,3,4,4a,10b)-hexahydrophenanthridin-2-ol] | 8.98 | 83 to 92 | 
4 | COC(=O)c1ccc(C2=NC3CCC(O)CC3c3cc(OC)c(OC)cc32)cc1 (racemic) [Compound 8, (±)-(2RS,4aRS,10bRS)-6-(4-Methoxycarbonylphenyl)-8,9-dimethoxy-(1,2,3,4,4a,10b)-hexahydrophenanthridin-2-ol] | 9.21 | 94 to 105 | 
5 | COc1cc2c(cc1OC)C1CC(O)CCC1N=C2c1ccc(N(C)C)cc1 (racemic) [Compound 9, (±)-(2RS,4aRS,10bRS)-6-(4-Dimethylaminophenyl)-8,9-dimethoxy-(1,2,3,4,4a,10b)-hexahydrophenanthridin-2-ol] | 7.13 | 115 to 121 | 
6 | COc1ccc(C2=NC3CCC(O)CC3c3cc(OC)c(OC)cc32)cc1OC (racemic) [Compound 10, (±)-(2RS,4aRS,10bRS)-6-(3,4-Dimethoxyphenyl)-8,9-dimethoxy-(1,2,3,4,4a,10b)-hexahydrophenanthridin-2-ol] | 8.71 | 104 to 110 | 
7 | COc1cc2c(cc1OC)C1CC(O)CCC1N=C2c1ccc([N+](=O)[O-])cc1 (racemic) [Compound 11, (±)-(2RS,4aRS, 10bRS)-6-(4-Nitrophenyl)-8,9-dimethoxy-(1,2,3,4,4a,10b)-hexahydrophenanthridin-2-ol] | 9.11 | 178 to 181 | 
8 | COc1cc2c(cc1OC)C1CC(O)CCC1N=C2c1ccc(C(=O)O)cc1 (racemic) [Compound 12, (±)-(2RS,4aRS,10bRS)-6-(4-Carboxyphenyl)-8,9-dimethoxy-(1,2,3,4,4a,10b)-hexahydro-phenanthridin-2-ol] | 8.25 | 172 to 183 | 
9 | COc1cc2c(cc1OC)C1CC(O)CCC1N=C2c1ccc(OCC2CC2)c(OCC2CC2)c1 (racemic) [Compound 13, (±)-(2SR,4aRS, 10bRS)-6-(3,4-Bis-cyclopropylmethoxyphenyl)-8,9-dimethoxy-(1,2,3,4,4a,10b)-hexahydrophenanthridin-2-ol] | 8.12 | 114 to 118 | 

Next, values leading:

Row | Inhibition of the PDE4 activity, −log IC50 [1] | melting point [°C] | IC50 [2] [nM] | SMILES
10 |  |  | 0.182 to 6.03 | CCOc1cc2c(cc1OC)C(c1ccc(OC(F)(F)C(F)F)cc1)=N[C@@H]1CC[C@@H](O)C[C@H]21 (racemic) [Compound 57, (±)-(2RS,4aRS,10bRS)-9-Ethoxy-8-methoxy-6-[4-(1,1,2,2-tetrafluoro-ethoxy)-phenyl]-1,2,3,4,4a,10b-hexahydro-phenanthridin-2-ol]
11 |  |  | 0.182 to 6.03 | CCOc1cc2c(cc1OC)C(c1ccc(OC(F)(F)F)cc1)=N[C@@H]1CC[C@@H](O)C[C@H]21 (racemic) [Compound 58, (±)-(2RS,4aRS,10bRS)-9-Ethoxy-8-methoxy-6-(4-trifluoromethoxy-phenyl)-1,2,3,4,4a,10b-hexahydro-phenanthridin-2-ol]
12 |  |  | 0.182 to 6.03 | CCOc1cc2c(cc1OC)C(c1ccc(OC)c(F)c1)=N[C@@H]1CC[C@@H](O)C[C@H]21 (racemic) [Compound 59, (±)-(2RS,4aRS,10bRS)-9-Ethoxy-6-(3-fluoro-4-methoxy-phenyl)-8-methoxy-1,2,3,4,4a,10b-hexahydro-phenanthridin-2-ol]
13 |  |  | 0.182 to 6.03 | CCOc1cc2c(cc1OC)C(c1ccc(F)c(F)c1)=N[C@@H]1CC[C@@H](O)C[C@H]21 (racemic) [Compound 60, (±)-(2RS,4aRS,10bRS)-6-(3,4-Difluoro-phenyl)-9-ethoxy-8-methoxy-1,2,3,4,4a,10b-hexahydro-phenanthridin-2-ol]
14 |  |  | 0.182 to 6.03 | CCOc1cc2c(cc1OC)C(c1cccc(F)c1)=N[C@@H]1CC[C@@H](O)C[C@H]21 (racemic) [Compound 61, (±)-(2RS,4aRS, 10bRS)-9-Ethoxy-6-(3-fluoro-phenyl)-8-methoxy-1,2,3,4,4a,10b-hexahydro-phenanthridin-2-ol]
15 |  |  | 0.182 to 6.03 | CCOc1cc2c(cc1OC)C(c1ccc(Br)cc1)=N[C@@H]1CC[C@@H](O)C[C@H]21 (racemic) [Compound 62, (±)-(2RS,4aRS,10bRS)-6-(4-Bromo-phenyl)-9-ethoxy-8-methoxy-1,2,3,4,4a,10b-hexahydro-phenanthridin-2-ol]
16 |  |  | 0.182 to 6.03 | COc1cc2c(cc1OC)[C@H]1C[C@H](O)CC[C@H]1N=C2c1ccc(C)cc1 (racemic) [Compound 63, (±)-(2RS,4aRS,10bRS)-8,9-Dimethoxy-6-p-tolyl-1,2,3,4,4a,10b-hexahydro-phenanthridin-2-ol]
17 |  |  | 0.182 to 6.03 | COc1cc2c(cc1OC)[C@H]1C[C@H](O)CC[C@H]1N=C2c1ccc(Oc2ccccc2)cc1 (racemic) [Compound 64, (±)-(2RS,4aRS,10bRS)-8,9-Dimethoxy-6-(4-phenoxy-phenyl)-1,2,3,4,4a,10b-hexahydro-phenanthridin-2-ol]
18 |  |  | 0.182 to 6.03 | COCCO[C@@H]1CC[C@H]2N=C(c3ccc(OCC4CC4)c(OCC4CC4)c3)c3cc(OC)c(OC)cc3[C@H]2C1 (racemic) [Compound 76, (±)-(2RS,4aRS,10bRS)-6-(3,4-Bis-cyclopropylmethoxy-phenyl)-8,9-dimethoxy-2-(2-methoxy-ethoxy)-1,2,3,4,4a,10b-hexahydro-phenanthridine]
